{
  "source": "patent US12297213B2",
  "about": "“Metal hydroxide complex comprising modified multilayer hydroxide structure comprising active ingredient and method of manufacturing same” (CNPHARM CO., LTD., priority 2018, dated 2025)",
  "key": {"[1]": {"system": "COL3A1 mRNA", "assay": "COL3A1 (type 3 collagen) mRNA expression by qRT-PCR in human dermal fibroblasts", "assay_type": "cell-based", "conditions": "positive control at 5.0 ng/ml, mean±SD", "procedure": "(§1) For the in-vitro collagen production increase test of Example 3 (hereinafter, referred to as “JL-101 powder”), normal human dermal fibroblasts (HDFs) were used. In order to set the test solution concentration of the sample, HDFs were treated with the sample material for 24 hr and the concentration range in which cytotoxicity was not observed was confirmed through a cytotoxicity test. HDFs were treated with 'JL-101 powder' at the set test solution concentration in the same manner, and thus the expression levels of COL1A1 and COL3A1 mRNA, which are collagen genes, were compared and analyzed using real-time PCR (RT-PCR). […] The expression level of a collagen gene was determined by measuring the expression levels of a COL1A1 gene, which is a representative component of type 1 collagen, and of a COL3A1 gene, which is a representative component of type 3 collagen, using quantitative real-time PCR (qRT-PCR) (Peter, 2008). […] The concentration and purity (A260/A280 and A260/A230 ratio) of total mRNA were measured using a MaestroNano® microvolume spectrophotometer (Maestrogen, Las Vegas, NV, USA), and only total mRNA having high purity of 2.0 or more was selected. […] Mix Plus (Solis BioDyne, Estonia), and the expression of the corresponding gene was analyzed using Line-Gene K software (Bioer Technology Co. Ltd., Hangzhou, China). […]"}, "[2]": {"system": "COL1A1 mRNA", "assay": "COL1A1 (type 1 collagen) mRNA expression by qRT-PCR in human dermal fibroblasts", "assay_type": "cell-based", "conditions": "positive control at 5.0 ng/ml, mean±SD", "procedure": "as §1"}},
  "data": [
    {"substance": "TGF-β", "values": [
      {"measurement": "increase of expression of COL3A1 mRNA compared to the negative control", "setting": "[1]", "result": "22.93±6.21", "unit": "%"},
      {"measurement": "increase of expression of COL1A1 mRNA compared to the negative control", "setting": "[2]", "result": "219.65±7.25", "unit": "%"}
    ]}
  ]
}
